Measurements as given in US11203633B2, “Polynucleotides encoding antibodies or antigen binding fragments thereof that bind pseudomonas perv” (priority 2011, dated 2021).

Columns and labels:
[1] = tested on: P. aeruginosa strains (PAO1, 33356, 6294, 6077, 6206, PA103A); assay: Acute pneumonia model in mice, survival; format: in vivo, Pseudomonas aeruginosa; conditions: for protection from challenge: 45 and 15 mg/kg; for survival compared to controls: 45, 15, 5 mg/kg 24 hours before infection
Procedure: Antibodies or PBS were administered 24 hours before infection in each model. P. aeruginosa acute pneumonia, keratitis, and thermal injury infection models were performed as described (DiGiandomenico, A., et al., Proc Natl Acad Sci USA 104, 4624-4629 (2007)), with modifications. In the acute pneumonia model, BALB/c mice (The Jackson Laboratory) were infected with P. aeruginosa strains suspended in a 0.05 ml inoculum. In the thermal injury model, CF-1 mice (Charles River) received a 10% total body surface area burn with a metal brand heated to 92° C. for 10 seconds. Animals were infected subcutaneously with P. aeruginosa strain 6077 at the indicated dose. For organ burden experiments, acute pneumonia was induced in mice followed by harvesting of lungs, spleens, and kidneys 24 hours post-infection for determination of CFU.
The in vivo effect of administration of an anti-PcrV antibodies was studied in mice using an acute pneumonia model. Groups of mice were treated with either increasing concentrations of the V2L2 antibody, a positive control anti-PcrV antibody (mAb166), or a negative control (R347), as shown in FIG. 13 (A-B). Groups of mice were also treated with either increasing concentrations of the V2L2 antibody, the PcrV antibody PcrV-02, or a negative control (R347), as shown in FIG. 13 (C-D). Twenty-four hours after treatment, all mice were infected with 5×10^7 CFU (C) Pseudomonas aeruginosa 6294 (06) or (D) PA103A (O11).
Groups of mice were treated with either increasing concentrations of the 11A6, 3G5 or V2L7, the same concentrations of 29D2, 1F3, 1E6, V2L2, LE10, SH3, 4A8, 2H3, or 21F1, increasing concentrations of the 29D2, increasing concentrations of the V2L2, the PcrV antibody PcrV-02, or a negative control (R347), as shown in FIG. 13 (E-H). Mice were injected intraperitoneally (IP) with mAbs 24 hours prior to intranasal infection with Pseudomonas strain 6077 (1×10^6 CFU/animal).

[2] = tested on: luminescent P. aeruginosa serogroup 05 strain (PAO1.lux); assay: Opsonophagocytic killing (OPK) assay, PAO1.lux; format: cell-based, Pseudomonas aeruginosa
Procedure: This example describes the evaluation of prioritized human IgG1 antibodies to promote OPK of P. aeruginosa. […] OPK assays were performed as described in (DiGiandomenico, A., et al., Infect Immun 72, 7012-7021 (2004)), with modifications. Briefly, assays were performed in 96-well plates using 0.025 ml of each OPK component; P. aeruginosa strains; diluted baby rabbit serum; differentiated HL-60 cells; and monoclonal antibody. In some OPK assays, luminescent P. aeruginosa strains, which were constructed as described (Choi, K. H., et al., Nat Methods 2, 443-448 (2005)), were used. Luminescent OPK assays were performed as described above but with determination of relative luciferase units (RLUs) using a Perkin Elmer ENVISION Multilabel plate reader (Perkin Elmer).

Cam-003: anti-Psl human IgG1 monoclonal antibody; VH SEQ ID NO:1, VL SEQ ID NO:2
survival vs. R347, Log-rank test P ([1]; 6077 1×10^6 CFU, 5 mg/kg, FIG. 6D): 0.0001 | survival vs. R347, Log-rank test P ([1]; 6294 7×10^6 CFU, 5 mg/kg, FIG. 6C): 0.0212 | survival vs. R347, Log-rank test P ([1]; 6294 7×10^6 CFU, 15 mg/kg, FIG. 6C): 0.0019 | survival vs. R347, Log-rank test P ([1]; 6294 7×10^6 CFU, 45 mg/kg, FIG. 6C): 0.0007 | survival vs. R347, Log-rank test P ([1]; 33356 3×10^7 CFU, 5 mg/kg, FIG. 6B): 0.0373 | survival vs. R347, Log-rank test P ([1]; 33356 3×10^7 CFU, 15 mg/kg, FIG. 6B): 0.0012 | survival vs. R347, Log-rank test P ([1]; 33356 3×10^7 CFU, 45 mg/kg, FIG. 6B): 0.0012 | survival vs. R347, Log-rank test P ([1]; PAO1 1.6×10^7 CFU, 5 mg/kg, FIG. 6A): 0.0033 | survival vs. R347, Log-rank test P ([1]; PAO1 1.6×10^7 CFU, 15 mg/kg, FIG. 6A): 0.0003 | protection from challenge ([1]; cytotoxic strain 6077, FIG. 6D): complete protection | survival ([1]; strain 6077, 5 mg/kg, FIG. 6D): 90% | survival compared to controls ([1]; strain 6294, FIG. 6C): significant concentration-dependent survival | survival ([1]; strain 33356, 5 mg/kg, FIG. 6B): 80% | protection from challenge ([1]; strain 33356, FIG. 6B): complete protection | survival compared to controls ([1]; strain PAO1, FIG. 6A): significant concentration-dependent survival | OPK EC50 ([2]; FIG. 9A, unit inferred): 0.06 µg/mL | OPK activity (killing of PAO1.lux) ([2]; purified human IgG1 mAbs from phage panning, FIG. 2A): superior OPK activity
